# Results: article PMC11357990, “A first-in-class selective inhibitor of EGFR and PI3K offers a single-molecule approach to targeting adaptive resistance” (Nature Cancer, 2024)
# How the values were obtained:
# Assay in all cases: biochemical
# Conditions in all cases: read-out: Binding / ================================================= / % Inhibition of Control Specific Binding
# [1] = target: T1, MAO-A (antagonist radioligand) (Rattus norvegicus, UniProt P21396)
# T1 construct: gene Maoa
# [2] = target: T2, V1a (h) (agonist radioligand) (Homo sapiens, UniProt P37288)
# T2 construct: gene AVPR1A
# T2 sequence (P37288 whole entry): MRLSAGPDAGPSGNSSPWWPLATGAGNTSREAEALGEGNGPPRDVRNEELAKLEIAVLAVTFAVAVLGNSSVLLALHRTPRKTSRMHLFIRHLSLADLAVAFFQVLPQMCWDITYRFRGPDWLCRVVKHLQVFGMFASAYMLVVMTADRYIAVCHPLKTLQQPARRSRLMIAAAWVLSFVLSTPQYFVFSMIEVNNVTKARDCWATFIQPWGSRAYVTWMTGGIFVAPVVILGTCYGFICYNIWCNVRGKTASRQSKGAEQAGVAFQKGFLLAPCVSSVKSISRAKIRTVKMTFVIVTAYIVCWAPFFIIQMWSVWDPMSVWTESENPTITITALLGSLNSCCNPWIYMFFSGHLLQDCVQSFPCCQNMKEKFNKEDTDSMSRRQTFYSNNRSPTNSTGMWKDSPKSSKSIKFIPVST
# [3] = target: T3, M3 (h) (antagonist radioligand) (Homo sapiens, UniProt P20309)
# T3 construct: gene CHRM3
# [4] = target: CXCR2 (IL-8B) (h) (agonist radioligand) (Homo sapiens, UniProt P25025)
# [5] = target: T4, MC4 (h) (agonist radioligand) (Homo sapiens, UniProt P32245)
# T4 construct: gene MC4R
# [6] = target: T5, alpha 2A (h) (antagonist radioligand) (Homo sapiens, UniProt P08913)
# T5 construct: gene ADRA2A
# T5 sequence (P08913 whole entry): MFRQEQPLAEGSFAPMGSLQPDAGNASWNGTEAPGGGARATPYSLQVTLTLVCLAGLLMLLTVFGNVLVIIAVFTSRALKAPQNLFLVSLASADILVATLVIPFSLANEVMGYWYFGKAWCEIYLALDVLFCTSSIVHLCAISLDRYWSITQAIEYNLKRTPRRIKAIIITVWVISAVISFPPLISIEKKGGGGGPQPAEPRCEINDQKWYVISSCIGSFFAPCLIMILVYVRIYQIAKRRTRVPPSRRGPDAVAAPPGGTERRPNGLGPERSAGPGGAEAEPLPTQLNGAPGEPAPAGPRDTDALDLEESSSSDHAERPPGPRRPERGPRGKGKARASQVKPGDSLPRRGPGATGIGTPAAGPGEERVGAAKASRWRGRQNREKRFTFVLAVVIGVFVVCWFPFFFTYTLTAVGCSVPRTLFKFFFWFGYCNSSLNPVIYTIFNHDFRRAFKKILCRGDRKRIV
# [7] = target: T6, CCK2 (CCKB) (h) (agonist radioligand) (Homo sapiens, UniProt P32239)
# T6 construct: gene CCKBR
# [8] = target: T7, M1 (h) (antagonist radioligand) (Homo sapiens, UniProt P11229)
# T7 construct: gene CHRM1
# [9] = target: T8, CB2 (h) (agonist radioligand) (Homo sapiens, UniProt P34972)
# T8 construct: gene CNR2
# [10] = target: T9, beta 2 (h) (antagonist radioligand) (Homo sapiens, UniProt P07550)
# T9 construct: gene ADRB2
# T9 sequence (P07550 whole entry): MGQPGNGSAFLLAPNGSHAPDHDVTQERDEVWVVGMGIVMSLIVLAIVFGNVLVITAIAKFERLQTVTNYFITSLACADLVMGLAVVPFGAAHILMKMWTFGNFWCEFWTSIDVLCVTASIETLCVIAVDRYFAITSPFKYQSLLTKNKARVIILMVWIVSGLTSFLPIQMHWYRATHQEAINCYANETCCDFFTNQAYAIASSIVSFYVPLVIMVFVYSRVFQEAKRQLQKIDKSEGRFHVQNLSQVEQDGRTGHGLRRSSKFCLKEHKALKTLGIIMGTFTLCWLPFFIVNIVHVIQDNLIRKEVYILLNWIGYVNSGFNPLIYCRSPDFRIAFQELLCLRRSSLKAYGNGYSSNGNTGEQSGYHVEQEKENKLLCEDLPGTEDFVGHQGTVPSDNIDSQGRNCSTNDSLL
# [11] = target: T10, beta 1 (h) (agonist radioligand) (Homo sapiens, UniProt P08588)
# T10 construct: gene ADRB1
# [12] = target: T11, kappa (h) (KOP) (agonist radioligand) (Homo sapiens, UniProt P41145)
# T11 construct: gene OPRK1
# [13] = target: T12, H2 (h) (antagonist radioligand) (Homo sapiens, UniProt P25021)
# T12 construct: gene HRH2
# T12 sequence (P25021 whole entry): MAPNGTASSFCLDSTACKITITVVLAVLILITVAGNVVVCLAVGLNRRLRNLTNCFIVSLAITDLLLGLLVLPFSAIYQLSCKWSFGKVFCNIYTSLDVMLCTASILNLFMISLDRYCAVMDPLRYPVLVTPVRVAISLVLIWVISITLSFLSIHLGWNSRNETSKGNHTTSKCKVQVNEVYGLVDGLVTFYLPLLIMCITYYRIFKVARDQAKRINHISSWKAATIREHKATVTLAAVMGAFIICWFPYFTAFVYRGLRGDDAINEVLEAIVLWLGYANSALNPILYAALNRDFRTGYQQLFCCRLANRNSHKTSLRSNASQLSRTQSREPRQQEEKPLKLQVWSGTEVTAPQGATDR
# [14] = target: T13, 5-HT2B (h) (agonist radioligand) (Homo sapiens, UniProt P41595)
# T13 construct: gene HTR2B
# [15] = target: T14, mu (MOP) (h) (agonist radioligand) (Homo sapiens, UniProt P35372)
# T14 construct: gene OPRM1
# T14 sequence (P35372 whole entry): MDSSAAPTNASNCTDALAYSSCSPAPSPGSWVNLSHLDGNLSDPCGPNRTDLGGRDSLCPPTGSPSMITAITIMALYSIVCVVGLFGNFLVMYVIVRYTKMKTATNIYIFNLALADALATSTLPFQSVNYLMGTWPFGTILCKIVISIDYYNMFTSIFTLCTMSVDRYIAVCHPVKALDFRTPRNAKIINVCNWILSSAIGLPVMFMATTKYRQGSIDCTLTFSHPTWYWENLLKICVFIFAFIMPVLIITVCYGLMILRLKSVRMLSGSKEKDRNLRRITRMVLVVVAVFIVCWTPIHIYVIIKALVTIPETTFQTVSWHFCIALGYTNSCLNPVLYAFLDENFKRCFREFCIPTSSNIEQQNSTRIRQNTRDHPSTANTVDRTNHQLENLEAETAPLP
# [16] = target: CCR1 (h) (agonist radioligand) (Homo sapiens, UniProt P32246)
# CCR1 (h) (agonist radioligand), sequence (P32246 whole entry): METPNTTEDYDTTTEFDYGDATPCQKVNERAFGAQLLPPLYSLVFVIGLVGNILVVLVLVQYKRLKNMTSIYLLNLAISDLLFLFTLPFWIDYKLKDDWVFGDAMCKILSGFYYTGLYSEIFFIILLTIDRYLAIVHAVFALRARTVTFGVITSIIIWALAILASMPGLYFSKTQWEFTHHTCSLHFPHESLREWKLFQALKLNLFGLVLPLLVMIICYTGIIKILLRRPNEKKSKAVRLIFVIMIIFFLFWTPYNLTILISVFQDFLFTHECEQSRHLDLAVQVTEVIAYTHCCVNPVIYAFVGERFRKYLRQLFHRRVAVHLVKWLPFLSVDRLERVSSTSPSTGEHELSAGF
# [17] = target: T15, AT1 (h) (antagonist radioligand) (Homo sapiens, UniProt P30556)
# T15 construct: gene AGTR1
# [18] = target: T16, D1 (h) (antagonist radioligand) (Homo sapiens, UniProt P21728)
# T16 construct: gene DRD1
# [19] = target: T17, GR (h) (agonist radioligand) (Homo sapiens, UniProt P04150)
# T17 construct: gene NR3C1
# [20] = target: T18, N neuronal alpha 4beta 2 (h) (agonist radioligand) (Homo sapiens, UniProt P17787+P43681)
# T18 construct: gene CHRNB2
# [21] = target: T19, alpha 1A (h) (antagonist radioligand) (Homo sapiens, UniProt P35348)
# T19 construct: gene ADRA1A
# [22] = target: T20, GABAB(1b) (h) (antagonist radioligand) (Homo sapiens, UniProt Q9UBS5)
# T20 construct: gene GABBR1
# [23] = target: T21, norepinephrine transporter (h) (antagonist radioligand) (Homo sapiens, UniProt P23975)
# T21 construct: gene SLC6A2
# [24] = target: T22, 5-HT transporter (h) (antagonist radioligand) (Homo sapiens, UniProt P31645)
# T22 construct: gene SLC6A4
# [25] = target: T23, H1 (h) (antagonist radioligand) (Homo sapiens, UniProt P35367)
# T23 construct: gene HRH1
# [26] = target: T24, PPARgamma h) (agonist radioligand) (Homo sapiens, UniProt P37231)
# T24 construct: gene PPARG
# T24 sequence (P37231 whole entry): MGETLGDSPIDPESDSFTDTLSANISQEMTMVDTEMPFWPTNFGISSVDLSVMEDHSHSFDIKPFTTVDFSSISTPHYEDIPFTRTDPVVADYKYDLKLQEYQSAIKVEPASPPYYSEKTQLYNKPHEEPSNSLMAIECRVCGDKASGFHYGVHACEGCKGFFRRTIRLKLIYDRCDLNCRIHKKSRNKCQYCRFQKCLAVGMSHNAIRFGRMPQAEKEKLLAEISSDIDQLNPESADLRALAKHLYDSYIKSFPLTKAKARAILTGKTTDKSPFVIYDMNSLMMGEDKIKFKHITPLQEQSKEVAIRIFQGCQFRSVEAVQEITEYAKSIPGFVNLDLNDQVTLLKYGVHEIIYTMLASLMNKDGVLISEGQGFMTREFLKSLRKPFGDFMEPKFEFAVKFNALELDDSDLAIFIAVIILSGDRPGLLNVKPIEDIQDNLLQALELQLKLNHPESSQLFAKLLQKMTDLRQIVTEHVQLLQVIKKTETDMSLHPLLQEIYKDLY
# [27] = target: T25, 5-HT1A (h) (agonist radioligand) (Homo sapiens, UniProt P08908)
# T25 construct: gene HTR1A
# T25 sequence (P08908 whole entry): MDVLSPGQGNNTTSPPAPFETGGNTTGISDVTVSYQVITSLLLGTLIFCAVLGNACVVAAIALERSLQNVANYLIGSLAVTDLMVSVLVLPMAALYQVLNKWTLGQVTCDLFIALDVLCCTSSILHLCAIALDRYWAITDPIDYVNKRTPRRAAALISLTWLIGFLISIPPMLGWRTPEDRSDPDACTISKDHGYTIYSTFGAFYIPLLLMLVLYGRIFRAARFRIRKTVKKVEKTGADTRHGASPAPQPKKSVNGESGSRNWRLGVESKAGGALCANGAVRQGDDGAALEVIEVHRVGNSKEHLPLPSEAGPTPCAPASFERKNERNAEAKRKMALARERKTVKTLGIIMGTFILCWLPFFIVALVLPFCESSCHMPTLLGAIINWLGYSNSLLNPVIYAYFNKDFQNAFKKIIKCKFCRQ
# [28] = target: T26, CB1 (h) (agonist radioligand) (Homo sapiens, UniProt P21554)
# T26 construct: gene CNR1
# T26 sequence (P21554 whole entry): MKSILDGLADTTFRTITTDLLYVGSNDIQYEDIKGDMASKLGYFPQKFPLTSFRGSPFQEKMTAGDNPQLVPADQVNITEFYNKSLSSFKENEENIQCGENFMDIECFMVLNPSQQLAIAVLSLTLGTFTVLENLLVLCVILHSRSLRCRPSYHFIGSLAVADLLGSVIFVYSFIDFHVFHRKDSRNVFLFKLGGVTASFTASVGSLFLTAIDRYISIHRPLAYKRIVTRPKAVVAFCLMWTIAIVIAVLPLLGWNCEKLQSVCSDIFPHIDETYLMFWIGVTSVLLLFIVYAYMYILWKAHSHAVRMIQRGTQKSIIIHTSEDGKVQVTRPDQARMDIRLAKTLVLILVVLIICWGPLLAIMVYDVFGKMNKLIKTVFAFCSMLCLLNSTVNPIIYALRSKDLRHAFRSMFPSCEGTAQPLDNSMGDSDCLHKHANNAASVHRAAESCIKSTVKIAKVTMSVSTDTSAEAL
# [29] = target: T27, alpha 2B (h) (antagonist radioligand) (Homo sapiens, UniProt P18089)
# T27 construct: gene ADRA2B
# T27 sequence (P18089 whole entry): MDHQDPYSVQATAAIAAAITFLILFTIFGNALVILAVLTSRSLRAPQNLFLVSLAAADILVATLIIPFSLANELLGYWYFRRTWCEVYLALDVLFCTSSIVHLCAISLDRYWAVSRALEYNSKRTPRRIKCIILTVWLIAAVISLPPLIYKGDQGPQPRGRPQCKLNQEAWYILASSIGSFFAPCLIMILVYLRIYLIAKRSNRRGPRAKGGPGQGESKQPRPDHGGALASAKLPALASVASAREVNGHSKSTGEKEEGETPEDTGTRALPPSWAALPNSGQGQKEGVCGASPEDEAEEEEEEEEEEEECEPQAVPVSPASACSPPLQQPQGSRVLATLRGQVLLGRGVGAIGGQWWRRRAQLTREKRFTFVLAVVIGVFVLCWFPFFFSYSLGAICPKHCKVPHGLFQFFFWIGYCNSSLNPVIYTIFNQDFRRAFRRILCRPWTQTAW
# [30] = target: T28, D2L (h) (antagonist radioligand) (Homo sapiens, UniProt P14416)
# T28 construct: gene DRD2
# [31] = target: T29, dopamine transporter (h) (antagonist radioligand) (Homo sapiens, UniProt Q01959)
# T29 construct: gene SLC6A3
# T1 sequence (P21396 whole entry): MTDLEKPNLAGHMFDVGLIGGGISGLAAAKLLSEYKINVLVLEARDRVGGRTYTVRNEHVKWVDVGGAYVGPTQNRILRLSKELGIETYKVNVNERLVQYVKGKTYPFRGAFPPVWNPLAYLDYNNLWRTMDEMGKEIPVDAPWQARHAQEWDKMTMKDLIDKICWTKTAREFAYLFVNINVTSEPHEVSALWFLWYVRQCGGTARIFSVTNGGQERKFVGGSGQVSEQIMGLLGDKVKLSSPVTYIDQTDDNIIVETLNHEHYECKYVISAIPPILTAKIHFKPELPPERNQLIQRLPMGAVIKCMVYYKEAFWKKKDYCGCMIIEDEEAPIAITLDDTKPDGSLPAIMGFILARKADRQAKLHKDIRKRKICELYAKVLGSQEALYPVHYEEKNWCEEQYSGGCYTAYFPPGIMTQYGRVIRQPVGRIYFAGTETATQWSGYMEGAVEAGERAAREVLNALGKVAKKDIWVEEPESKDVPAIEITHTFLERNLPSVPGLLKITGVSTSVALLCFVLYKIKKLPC
structure (smiles),measurement,setting,value
"C[C@@H](Nc1ncnc2ccc(-c3cnc(Cl)c(NS(C)(=O)=O)c3)cc12)c1ccccc1 [MTX-531, (R)-N-(2-chloro-5-(4-((1-phenylethyl)amino)quinazolin-6-yl)pyridin-3-yl)methane-sulfonamide]",inhibition at 10 µM,[1],8%
same,inhibition at 10 µM,[2],2%
same,inhibition at 10 µM,[3],-4%
same,inhibition at 10 µM,[4],4%
same,inhibition at 10 µM,[5],1%
same,inhibition at 10 µM,[6],5%
same,inhibition at 10 µM,[7],-8%
same,inhibition at 10 µM,[8],22%
same,inhibition at 10 µM,[9],39%
same,inhibition at 10 µM,[10],-6%
same,inhibition at 10 µM,[11],1%
same,inhibition at 10 µM,[12],7%
same,inhibition at 10 µM,[13],-1%
same,inhibition at 10 µM,[14],2%
same,inhibition at 10 µM,[15],25%
same,inhibition at 10 µM,[16],0%
same,inhibition at 10 µM,[17],4%
same,inhibition at 10 µM,[18],2%
same,inhibition at 10 µM,[19],3%
same,inhibition at 10 µM,[20],-8%
same,inhibition at 10 µM,[21],9%
same,inhibition at 10 µM,[22],-3%
same,inhibition at 10 µM,[23],19%
same,inhibition at 10 µM,[24],-1%
same,inhibition at 10 µM,[25],-7%
same,inhibition at 10 µM,[26],48%
same,inhibition at 10 µM,[27],6%
same,inhibition at 10 µM,[28],-2%
same,inhibition at 10 µM,[29],2%
same,inhibition at 10 µM,[30],-17%
same,inhibition at 10 µM,[31],12%
